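How tested: cells in 96-well plates exposed to compound for 48 hours at five concentrations. The concentration for 50% growth inhibition is given as GI50.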 The source made the active and inactive calls. No stated cut-off is given here; in the data, active = GI50 up to about 1.1 µM and inactive = higher.
What was measured:
Test in all cases: growth of human tumour cells (NCI), 48 h
[1] = test system: SNB-78
[2] = test system: HOP-18
[3] = test system: KM-20L2
[4] = test system: DMS-114
[5] = test system: DLD-1
[6] = test system: DMS-273
[7] = test system: XF498
[8] = test system: M19-MEL
[9] = test system: RXF 631

Compound | GI50 [1] | GI50 [2] | GI50 [3] | GI50 [4] | GI50 [5] | GI50 [6] | GI50 [7] | GI50 [8] | GI50 [9]
CCNC(=O)C(O)C1(O)CCC2[C@@H]3CCC4=CC(=O)C=C[C@]4(C)C3[C@@H](O)C[C@@]21C (stereo partly drawn) | > 100 µM (inactive) | 33.3 µM (inactive) | > 100 µM (inactive) | 60.7 µM (inactive) | > 100 µM (inactive) | > 100 µM (inactive) | > 100 µM (inactive) | > 100 µM (inactive) | > 100 µM (inactive)
C=C(C)c1nc(Oc2ccccc2)nc(Oc2ccccc2)n1 | 5.4 µM (inactive) | 16.6 µM (inactive) | 9.98 µM (inactive) | 3.01 µM (inactive) | 2.72 µM (inactive) | 6.43 µM (inactive) | 1.73 µM (inactive) | 2.88 µM (inactive) | 3.69 µM (inactive)
CNC=O | > 7830 µM (inactive) | > 10000 µM (inactive) | > 10000 µM (inactive) | > 5160 µM (inactive) | > 10000 µM (inactive) | > 10000 µM (inactive) | > 9550 µM (inactive) | > 10000 µM (inactive) | 
O=C(O)C1=CCCc2ccc3ccccc3c21 | > 100 µM (inactive) | 21.6 µM (inactive) | > 100 µM (inactive) | > 100 µM (inactive) |  | > 100 µM (inactive) | > 100 µM (inactive) | > 100 µM (inactive) | > 100 µM (inactive)
CCOC(=O)C1=C(NC)OC/C1=N\NC(=O)c1ccccc1O | 96.6 µM (inactive) | 14.8 µM (inactive) | 39.7 µM (inactive) | 20.7 µM (inactive) | 17.6 µM (inactive) | 23.1 µM (inactive) | 56.4 µM (inactive) | 29.9 µM (inactive) | 
CCCCCCCCCCCCCCCCCC(=O)OCC(CN(C)CCN(C)C)OC(=O)CCCCCCCCCCCCCCCCC (stereo not drawn) | > 100 µM (inactive) | 20.6 µM (inactive) | > 100 µM (inactive) | 46.1 µM (inactive) | 89.7 µM (inactive) | > 100 µM (inactive) |  |  | 55.5 µM (inactive)
CCCCCC(C[N+]1(C)CCOCC1)C(=O)/C=C/c1ccccc1 (stereo not drawn) | 14.1 µM (inactive) | 14.8 µM (inactive) | 15.9 µM (inactive) | 9.62 µM (inactive) | 6.25 µM (inactive) | 2.91 µM (inactive) | 14.4 µM (inactive) | 14.6 µM (inactive) | 
CCOc1ccccc1C=C1c2ccccc2C(=O)c2ccccc21 | 5.75 µM (inactive) |  |  | 3.42 µM (inactive) | 2.55 µM (inactive) | 0.535 µM (active) |  | 5.93 µM (inactive) | 
CC(=O)N1[C@H](C(=O)O)CS[C@H]1c1ccncc1 | > 100 µM (inactive) | > 100 µM (inactive) | > 100 µM (inactive) | > 100 µM (inactive) | > 100 µM (inactive) |  |  | > 100 µM (inactive) | 
O=C1/C(=C/c2ccc(Cl)cc2)CCC1CN1CCOCC1 (stereo not drawn) | 12.5 µM (inactive) | 13.9 µM (inactive) | 10.7 µM (inactive) | 22.8 µM (inactive) | 2.52 µM (inactive) | 3.06 µM (inactive) | 2.55 µM (inactive) |  | 8.36 µM (inactive)
CCOc1ccc(/C(C=O)=C(\Cl)c2ccc(OC)c(OC)c2)cc1 | > 100 µM (inactive) | > 100 µM (inactive) | > 100 µM (inactive) | > 100 µM (inactive) | > 100 µM (inactive) | > 100 µM (inactive) | 45.2 µM (inactive) | > 100 µM (inactive) | > 100 µM (inactive)
O=C1Sc2sc(=S)sc2SC1c1ccccc1 (stereo not drawn) | 31.9 µM (inactive) | 48.1 µM (inactive) | > 63.5 µM (inactive) | 34.3 µM (inactive) | 32.2 µM (inactive) | > 100 µM (inactive) | 45.2 µM (inactive) | 60.4 µM (inactive) | 
S=P1(c2ccccc2)Nc2ccc(Cl)cc2N1 (stereo not drawn) | 23.5 µM (inactive) | > 100 µM (inactive) | > 100 µM (inactive) | 26.6 µM (inactive) | > 100 µM (inactive) | > 100 µM (inactive) | > 100 µM (inactive) | 14.2 µM (inactive) | 85.7 µM (inactive)
O=C(Cl)c1cc([N+](=O)[O-])cc([N+](=O)[O-])c1 | > 100 µM (inactive) |  |  | > 100 µM (inactive) | > 100 µM (inactive) | > 100 µM (inactive) | > 100 µM (inactive) | > 100 µM (inactive) | 
Cc1cc(N(CCC#N)CCC#N)ccc1/N=N/c1ccc(S(N)(=O)=O)cc1 | > 100 µM (inactive) | 51.1 µM (inactive) |  | > 100 µM (inactive) | > 100 µM (inactive) | > 100 µM (inactive) | 0.0413 µM (active) |  | > 100 µM (inactive)
CCOC(=O)C(C)c1c(C(=O)c2ccc(C)nc2)c2ccccc2n1C (stereo not drawn) | > 100 µM (inactive) |  | > 100 µM (inactive) | > 100 µM (inactive) | > 100 µM (inactive) | > 100 µM (inactive) | 83 µM (inactive) | > 100 µM (inactive) | > 100 µM (inactive)
C#C[C@]1(O)CCC2C3CCc4cc(Oc5nc(F)nc(-c6c7cc8ccccc8cc7c7n6CCS7)n5)ccc4C3CCC21C (stereo partly drawn) | > 100 µM (inactive) | > 100 µM (inactive) | 32.7 µM (inactive) | 21.5 µM (inactive) | 54.6 µM (inactive) | 23.8 µM (inactive) | > 100 µM (inactive) | 30.3 µM (inactive) | 
CN(C)CCSc1cccc(-c2cc(-c3cccc(SCCN(C)C)c3)nc(SCCN(C)C)n2)c1 | 2.42 µM (inactive) | < 0.01 µM (active) | 1.71 µM (inactive) |  | 12.9 µM (inactive) |  |  |  | 
Clc1ccc(C[P+](c2ccccc2)(c2ccccc2)c2ccccc2)c(Cl)c1 | 3.42 µM (inactive) |  | 2.61 µM (inactive) | 1.52 µM (inactive) |  | 1.93 µM (inactive) | 1.61 µM (inactive) | 1.88 µM (inactive) | 
Cc1nc([N+](=O)[O-])cn1CC(=N)N |  |  | > 100 µM (inactive) | > 100 µM (inactive) | > 100 µM (inactive) | > 100 µM (inactive) |  | > 100 µM (inactive) | > 100 µM (inactive)
COc1cccc(NC(=O)CC(=O)N2N=C(N3c4ccccc4Sc4ccccc43)CC2c2ccccc2)c1 (stereo not drawn) | > 100 µM (inactive) | 9.48 µM (inactive) | > 100 µM (inactive) | > 100 µM (inactive) | > 100 µM (inactive) |  | > 100 µM (inactive) | > 100 µM (inactive) | 
CC(=O)[O-].[O-]c1c(Cl)cc(Cl)cc1/C=N/Nc1ccccn1.[Zn+2] |  |  | 3.7 µM (inactive) | 0.239 µM (active) | 0.415 µM (active) |  |  | 0.745 µM (active) | 
NC(=O)/C(=N\NC(=O)c1cc2ccccc2cc1O)C1C(=O)N(c2ccccc2)N=C1N (stereo not drawn) | 69.8 µM (inactive) | 17.5 µM (inactive) | 32.9 µM (inactive) | 20.4 µM (inactive) | 34 µM (inactive) |  | 37.6 µM (inactive) | 30.6 µM (inactive) | 37.3 µM (inactive)
CN(C)C=[N+]=[N-] | > 100 µM (inactive) | > 100 µM (inactive) | > 100 µM (inactive) | > 100 µM (inactive) | > 100 µM (inactive) | > 100 µM (inactive) | > 100 µM (inactive) | > 100 µM (inactive) | 
O=C(Nc1cc([N+](=O)[O-])cc([N+](=O)[O-])c1)OC1C2CCC1C1OC1C2 (stereo not drawn) | > 50 µM (inactive) |  | > 50 µM (inactive) | 30.5 µM (inactive) | > 50 µM (inactive) |  |  | > 50 µM (inactive) | 
Cc1cc2c(=O)cc(-c3ccc(Cl)cc3)oc2c(C(=O)O)c1C | > 100 µM (inactive) | > 100 µM (inactive) | > 100 µM (inactive) | > 100 µM (inactive) | > 100 µM (inactive) | > 100 µM (inactive) | > 100 µM (inactive) | > 100 µM (inactive) | > 100 µM (inactive)
O=C(c1ccccc1)[C@H]1Nc2ccc(Cl)cc2[C@H]2CCC[C@@H]12 | 51.3 µM (inactive) | 12.3 µM (inactive) | 26.9 µM (inactive) | 23.6 µM (inactive) | 21.8 µM (inactive) | 36.1 µM (inactive) | 17.1 µM (inactive) | 27.6 µM (inactive) | 36.1 µM (inactive)
CC(=O)OC1CCC2(C)C(CCC3C2CCC2(C)C(c4ccc(=O)oc4)C(OC(C)=O)CC32O)C1 (stereo not drawn) | 0.0164 µM (active) | 0.0125 µM (active) | 0.0188 µM (active) |  | 0.0155 µM (active) | 0.0125 µM (active) | 0.0244 µM (active) |  | 
CCOC(=O)Cc1ccc2c(c1O)C(=O)c1c(ccc(CC(=O)OCC)c1O)C2=O | > 100 µM (inactive) | 28.4 µM (inactive) | > 100 µM (inactive) | > 100 µM (inactive) | > 100 µM (inactive) | > 100 µM (inactive) | > 100 µM (inactive) | > 100 µM (inactive) | 
Cc1ccc(S(=O)(=O)OCOS(=O)(=O)c2ccc(C)cc2)cc1 | > 10 µM (inactive) | > 100 µM (inactive) | > 100 µM (inactive) | > 100 µM (inactive) | > 100 µM (inactive) | > 100 µM (inactive) |  | > 100 µM (inactive) | 
